The subject of data set [1] is T. b. rhodesiense (STIB 900). As to the kind of experiment: In vitro trypanocidal assay (Alamar Blue). In kind it is cell-based, Trypanosoma brucei rhodesiense. The note with it: Trypanosoma brucei, 72 h; read-out: IC50. Here is the method:
(§1) 10 µL of Alamar Blue was added for the final 3 h to determine viability. […] The IC50 values were calculated from the sigmoidal inhibition curves. For cytotoxicity, 4×10^4/mL L-6 rat skeletal myoblast cells were used, and incubations and assessments carried out as above.
In general terms: The colour change of resazurin is a common sign of viable cells or microbes.

The test system of data set [2] is L-6 rat myoblast cells. Description: Cytotoxicity assay. In kind it is cell-based. The note with it: 72 h, read-out: IC50. The procedure:
as §1

Data set [3] deals with T. b. gambiense (STIB 930). Description: In vitro trypanocidal assay (Alamar Blue). In kind it is cell-based, Trypanosoma brucei gambiense. The note with it: Trypanosoma brucei, 72 h; read-out: IC50. Here is the method: Parasites were cultured with or without the test article at a concentration of 3×10^4/mL in Minimal Essential Medium, according to Baltz et al., with the following modifications: 0.2 mM 2-mercaptoethanol, 1 mM Na-pyruvate, 0.5 mM hypoxanthine and 15% heat inactivated horse serum at 37°C in 5% CO2 in 96-well microtitre plates for 72 h. 10 µL of Alamar Blue was added for the final 3 h to determine viability. The assay was assessed by reading the fluorescence in each well at an excitation wavelength of 536 nm and at an emission wavelength of 588 nm. The IC50 values were calculated from the sigmoidal inhibition curves. For cytotoxicity, 4×10^4/mL L-6 rat skeletal myoblast cells were used, and incubations and assessments carried out as above.

For data set [4], the system named is rat liver cells. Description: Ex vivo unscheduled DNA synthesis. In kind it is in vivo. To be noted: 10 mg/kg, positive control. The procedure: Groups of young male Sprague-Dawley rats received fexinidazole at doses of 500, 1000, or 2000 mg/kg orally, and the livers were sampled either 2–4 h or 12–14 h after administration. Hepatocyte suspensions were prepared and incubated in the presence of […] thymidine. Slides of fixed hepatocytes were coated in photographic emulsion and stored for 14 days at 4°C in the dark. The silver grains above the nuclei or cytoplasm (background) were counted, providing a measure of DNA uptake during DNA repair. The difference between these two counts indicated the extent of DNA repair (nuclear net grain count).

The nature of data set [5]: One-electron reduction potential by pulse radiolysis. In kind it is physicochemical. Here is the method:
One-electron reduction potentials were determined by pulse radiolysis following an established procedure.

Values joined by “and” are separate entries in the source; they are usually repeats but may differ in a detail not shown here. Equal values may be shown once.

Here are results for four compounds from paper PMC3006138, “Fexinidazole – A New Oral Nitroimidazole Drug Candidate Entering Clinical Development for the Treatment of Sleeping Sickness” (PLoS Neglected Tropical Diseases, 2010).

In general, IC50 refers to the concentration needed to halve the response being measured. For the compound `N=C(N)c1ccc(OCCCCCOc2ccc(C(=N)N)cc2)cc1` [Pentamidine], the IC50 was 0.003 µg/mL and 9 nM in data set [1]; 3 µg/mL and 9 µM in data set [2]; 0.002 µg/mL and 10 nM in data set [3].
Turning to `Cc1ccc(C(=O)Nc2ccc(S(=O)(=O)O)c3cc(S(=O)(=O)O)cc(S(=O)(=O)O)c23)cc1NC(=O)c1cccc(NC(=O)Nc2cccc(C(=O)Nc3cc(C(=O)Nc4ccc(S(=O)(=O)O)c5cc(S(=O)(=O)O)cc(S(=O)(=O)O)c45)ccc3C)c2)c1` [Suramin], the IC50 was 0.062 µg/mL and 46 nM in data set [1]; > 90 µg/mL and > 70 µM in data set [2].
Turning to `CN(C)N=O` [dimethylnitrosamine, reference compound], in data set [4], the “Net nuclear grain count (2–4 h)” value is 8.9.
As to `Cc1ncc([N+](=O)[O-])n1CCO` [metronidazole, reference compound], the “single electron redox potential” value in data set [5] is listed as −516 mV.
